Experimental findings from ChEMBL document CHEMBL1201862, “PubChem BioAssay data set” (2004) are described below.

Usually AC50 stands for the concentration at which the activity in the assay is half-maximal.

The structures appear in SMILES notation. The source made the active and inactive calls.

A short description of experiment [1]: Luminescence Cell-Based Dose Confirmation HTS to Identify Inhibitors of Platelet Dense Granule Release. [Related pubchem assays: 1663 (Primary HTS), 1678 (Summary of Project)]. Type of experiment: functional.
For experiment [2], the target named is Luciferin 4-monooxygenase (Photinus pyralis, UniProt P08659). Description: inhibition of purified Photinus pyralis luciferase – biochemical, luminescence, dose response (AID 1891).
Sequence of Luciferin 4-monooxygenase (P08659 whole entry): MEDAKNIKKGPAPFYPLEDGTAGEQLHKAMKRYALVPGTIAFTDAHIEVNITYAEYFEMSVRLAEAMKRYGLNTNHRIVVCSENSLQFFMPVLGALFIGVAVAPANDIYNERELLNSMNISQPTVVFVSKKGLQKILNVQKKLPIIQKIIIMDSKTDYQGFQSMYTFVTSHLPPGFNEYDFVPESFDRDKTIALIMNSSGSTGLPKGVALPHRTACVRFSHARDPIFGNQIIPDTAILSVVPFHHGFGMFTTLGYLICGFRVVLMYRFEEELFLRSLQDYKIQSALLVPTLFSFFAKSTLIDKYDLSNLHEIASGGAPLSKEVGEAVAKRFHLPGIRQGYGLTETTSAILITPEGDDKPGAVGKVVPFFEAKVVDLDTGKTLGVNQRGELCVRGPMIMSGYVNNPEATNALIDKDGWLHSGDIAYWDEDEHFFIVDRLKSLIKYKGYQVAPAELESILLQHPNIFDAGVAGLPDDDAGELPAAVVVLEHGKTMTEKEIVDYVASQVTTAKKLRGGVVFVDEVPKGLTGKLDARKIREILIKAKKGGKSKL
A further experiment deals with Cytochrome P450 2C19 (Homo sapiens, UniProt P33261). Briefly: Cytochrome panel assay with activity outcomes. Panel member name: p450-cyp2c19 Compounds with AC50 equal or less than 10 uM are considered active. Type of experiment: functional. The note with it: read-out: AC50.
Sequence of Cytochrome P450 2C19 (P33261 whole entry): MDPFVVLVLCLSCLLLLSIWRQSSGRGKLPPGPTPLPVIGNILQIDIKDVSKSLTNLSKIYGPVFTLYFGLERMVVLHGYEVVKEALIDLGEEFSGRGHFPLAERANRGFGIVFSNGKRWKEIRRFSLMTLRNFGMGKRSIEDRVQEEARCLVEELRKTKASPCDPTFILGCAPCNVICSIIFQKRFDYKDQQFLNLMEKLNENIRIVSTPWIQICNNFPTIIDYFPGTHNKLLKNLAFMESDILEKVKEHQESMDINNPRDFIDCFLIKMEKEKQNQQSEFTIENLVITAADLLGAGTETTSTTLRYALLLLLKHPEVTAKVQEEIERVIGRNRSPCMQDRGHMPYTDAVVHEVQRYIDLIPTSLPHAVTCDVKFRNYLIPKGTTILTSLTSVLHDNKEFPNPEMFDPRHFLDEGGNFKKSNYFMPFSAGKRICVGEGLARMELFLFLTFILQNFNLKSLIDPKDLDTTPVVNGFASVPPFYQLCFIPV
The subject of the next experiment is Streptococcus. Briefly: GAS UMAA2166 growth inhibition – luminescence, BacTiterGlo, counter-screen for streptokinase expression inhibitor project, dose response (AID 1915).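 Note: potency for reduction of bacterial viability or growth.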 Type of experiment: functional, organism-based. (In general: The purpose of a counterscreen is to sort out artefacts and off-target activity.)
Experiment [3] concerns Streptococcus sp. 'group A'. Briefly: Streptococcus pyogenes SK(-)GAS viability under kanamycin – luminescence, BacTiterGlo, confirmation, counter-screen for streptokinase expression inhibitor project, dose response (AID 1900). The format is functional, organism-based.
The target in another experiment is T1, Streptokinase A (Streptococcus pyogenes serotype M1, UniProt P10520).
T1 sequence (P10520 whole entry): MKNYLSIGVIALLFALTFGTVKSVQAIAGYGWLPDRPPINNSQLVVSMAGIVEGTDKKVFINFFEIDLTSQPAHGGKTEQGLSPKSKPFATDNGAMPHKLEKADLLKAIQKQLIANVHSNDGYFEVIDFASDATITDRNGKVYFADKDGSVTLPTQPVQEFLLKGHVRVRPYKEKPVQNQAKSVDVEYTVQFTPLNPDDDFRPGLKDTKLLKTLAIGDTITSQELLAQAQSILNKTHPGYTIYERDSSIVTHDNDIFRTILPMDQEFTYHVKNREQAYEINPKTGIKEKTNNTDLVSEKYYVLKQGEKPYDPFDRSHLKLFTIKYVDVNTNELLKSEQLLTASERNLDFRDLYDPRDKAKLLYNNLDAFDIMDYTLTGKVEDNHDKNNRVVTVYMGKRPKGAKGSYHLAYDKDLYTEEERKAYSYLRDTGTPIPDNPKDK
Briefly: viability-normalized secreted streptokinase activity reduction – plasminogen activation absorbance, OD405, dose response (AID 1914).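 Note: secreted streptokinase activity via plasminogen activation per viability signal from cell pellet.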 The format is functional, Streptococcus pyogenes M1 GAS.

A short description of experiment [4]: Trypanosoma cruzi growth suppression in host cells – NIH3T3 host cells, beta-gal luminescence, confirmation (AID 2044).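 Note: intracellular parasites grown in NIH/3T3 mouse fibroblasts as host cells; luminescent beta-galactosidase reporter signal from transgenic T. cruzi replicating inside host cells; inhibitors lower the luminescence signal.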 Type of experiment: functional, cell-based.
A short description of experiment [5]: NIH3T3 cell viability loss – ATP luminescence, mouse fibroblasts, counter-screen, dose response (AID 2010).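 Note: cells exposed to compound for about 90 hours before reading.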 Type of experiment: functional, cell-based.
The target of experiment [6] is T2, Corticotropin-releasing factor receptor 2/Corticotropin-releasing factor-binding protein (Homo sapiens, UniProt P24387+Q13324).
T2 sequence (Q13324 whole entry): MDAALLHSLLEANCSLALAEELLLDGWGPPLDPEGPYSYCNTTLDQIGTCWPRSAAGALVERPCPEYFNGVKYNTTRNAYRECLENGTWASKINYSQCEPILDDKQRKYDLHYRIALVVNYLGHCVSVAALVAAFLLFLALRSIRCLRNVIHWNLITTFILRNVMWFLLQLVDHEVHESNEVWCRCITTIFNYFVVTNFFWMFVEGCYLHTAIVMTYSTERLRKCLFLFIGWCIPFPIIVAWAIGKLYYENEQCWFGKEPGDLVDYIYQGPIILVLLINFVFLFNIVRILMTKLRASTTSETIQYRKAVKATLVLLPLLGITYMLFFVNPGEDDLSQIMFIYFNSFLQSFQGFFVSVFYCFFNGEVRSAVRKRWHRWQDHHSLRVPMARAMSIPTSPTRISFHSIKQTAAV
T2 sequence (P24387 whole entry): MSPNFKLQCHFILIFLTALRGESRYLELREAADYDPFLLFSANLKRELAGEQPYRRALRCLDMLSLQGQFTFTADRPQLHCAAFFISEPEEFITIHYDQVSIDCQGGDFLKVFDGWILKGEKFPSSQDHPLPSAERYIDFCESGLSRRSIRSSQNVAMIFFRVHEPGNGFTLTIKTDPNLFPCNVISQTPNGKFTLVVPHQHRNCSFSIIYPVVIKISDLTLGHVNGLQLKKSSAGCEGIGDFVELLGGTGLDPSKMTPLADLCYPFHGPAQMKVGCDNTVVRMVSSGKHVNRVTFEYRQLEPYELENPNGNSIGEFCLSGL
Briefly: Dose Response confirmation of uHTS hits for small molecule antagonists of the CRF-binding protein and CRF-R2 receptor complex. The note with it: read-out: IC50_Mean. The format is functional.

Experiment [7] addresses T2, Corticotropin-releasing factor receptor 2/Corticotropin-releasing factor-binding protein. Description: activators of CRF receptor 2 with binding protein – uHTS hits, confirmation (AID 602473). The format is functional. The note with it: read-out: EC50_Mean.
For the next experiment, the target named is Cytochrome P450 2D6 (Homo sapiens, UniProt P10635).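 Note: CYP2D6 member of a cytochrome P450 panel assay.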
Sequence of Cytochrome P450 2D6 (P10635 whole entry): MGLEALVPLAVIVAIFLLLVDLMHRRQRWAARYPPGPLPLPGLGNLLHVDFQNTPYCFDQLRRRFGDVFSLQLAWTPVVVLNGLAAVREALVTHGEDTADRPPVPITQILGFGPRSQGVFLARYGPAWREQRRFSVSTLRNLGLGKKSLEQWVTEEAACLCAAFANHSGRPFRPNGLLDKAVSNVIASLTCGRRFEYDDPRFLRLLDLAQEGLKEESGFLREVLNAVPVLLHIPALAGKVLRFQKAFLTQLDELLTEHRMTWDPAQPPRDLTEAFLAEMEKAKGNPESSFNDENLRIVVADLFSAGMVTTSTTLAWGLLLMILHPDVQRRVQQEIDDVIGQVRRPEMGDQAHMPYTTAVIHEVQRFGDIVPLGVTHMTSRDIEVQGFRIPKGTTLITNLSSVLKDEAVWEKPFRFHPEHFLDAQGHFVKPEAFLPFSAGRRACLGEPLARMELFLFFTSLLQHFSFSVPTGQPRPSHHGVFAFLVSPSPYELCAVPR
For a further experiment, the target named is Cytochrome P450 2C9 (Homo sapiens, UniProt P11712).
Sequence of Cytochrome P450 2C9 (P11712 whole entry): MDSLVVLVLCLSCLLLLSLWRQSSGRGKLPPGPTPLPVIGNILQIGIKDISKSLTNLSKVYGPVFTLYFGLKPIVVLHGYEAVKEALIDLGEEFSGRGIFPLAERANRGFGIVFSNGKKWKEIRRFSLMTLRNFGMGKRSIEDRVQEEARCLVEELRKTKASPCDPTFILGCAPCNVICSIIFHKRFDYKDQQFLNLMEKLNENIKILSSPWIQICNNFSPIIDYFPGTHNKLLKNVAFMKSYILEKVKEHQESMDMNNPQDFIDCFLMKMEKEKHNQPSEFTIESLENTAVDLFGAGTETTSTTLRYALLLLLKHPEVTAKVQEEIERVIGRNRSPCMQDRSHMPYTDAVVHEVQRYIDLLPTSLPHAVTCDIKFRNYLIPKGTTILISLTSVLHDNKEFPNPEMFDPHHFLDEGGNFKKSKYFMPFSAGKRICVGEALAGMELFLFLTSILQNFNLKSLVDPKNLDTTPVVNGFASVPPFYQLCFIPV

`CC(C)S(=O)(=O)c1csc(C(=O)Nc2ccc(F)cc2)c1N`: the EC50 is < 0.701 µM (active) in experiment [1] and 2.33 µM (active) in experiment [2].
For `CC(=O)COc1ccc2c(C)c(C)c(=O)oc2c1`, the AC50 on Cytochrome P450 2C19 is 0.178 µM (inconclusive).
For the molecule `CCCN(CC(=O)Nc1ccccc1OC)C(=O)c1ccncc1`, the EC50 (in the experiment on Streptococcus; in experiment [3]; at Streptokinase A) was > 150 µM (not active) each time.
For the molecule `CCNC(=O)C1OC(n2cnc3c(N)ncnc32)C(O)C1O` (stereo not drawn), in [1], the EC50 was < 0.088 µM (active).
With `CCOc1cc(CNCCN2CCOCC2)ccc1OCc1ccccc1Cl`, the EC50 is 0.125 µM (active) in [4], > 112 µM (not active) in experiment [1], > 112 µM (not active) in [2] and 21.1 µM (active) in [5].
For the molecule `Cc1ccc(CNC(=O)CCNC(=O)Cn2ccc3ccccc3c2=O)cc1`, in experiment [6], the IC50 was > 47.1 µM (inactive). The EC50 in experiment [7] was > 53 µM (inactive).
For `O=C(NC(Cc1c[nH]c2ccccc12)C(=O)N/N=C/c1cccc2ccccc12)c1cccs1` (stereo not drawn), the EC50 is 39.5 µM (active) with Streptococcus, 5.65 µM (active) in experiment [3] and > 150 µM (not active) at Streptokinase A.
The matching figures for `CCC(=O)Nc1nc2ccccc2n1Cc1ccccc1C`: > 150 µM (not active), 2.29 µM (active) and > 150 µM (not active).
As for `c1csc(-c2csc3nc(CN4CCOCC4)nc(NCc4ccc5c(c4)OCO5)c23)c1`, the EC50 in the experiment with Streptococcus was > 150 µM (not active); in experiment [3], 12.3 µM (active); in [4], 1.31 µM (active); in [5] it was > 60 µM (not active); at Streptokinase A, 59.9 µM (active).
For `CC(C(=O)NCCN1CCOCC1)(c1ccccc1)c1ccccc1`, the IC50 in [6] is > 47.1 µM (inactive). Further, in experiment [7], the EC50 is > 53 µM (inactive).
Consider `Cc1ccc(SC(C)C(=O)Nc2ccccc2C(=O)N2CCOCC2)cc1` (stereo not drawn), for which the EC50 in experiment [1] and in [2] was > 112 µM (not active) throughout.
Turning to `COc1ccc(-c2ccc(CN3C(C)C(=O)N(Cc4cn(Cc5ccco5)nn4)CCS3(=O)=O)cc2)cc1` (stereo not drawn), in experiment [6], the IC50 is > 47.1 µM (inactive). Besides, the EC50 in experiment [7] is > 53 µM (inactive).
For the molecule `CC1CCN(c2nc(N3CCCCC3)nc(N3CCCCC3)n2)CC1`, the EC50 with Streptococcus was > 150 µM (not active); in experiment [3] it was 13.7 µM (active); at Streptokinase A, 33.2 µM (active).
Turning to `O=C(CN1C(=O)CCC1=O)Nc1nc(-c2cccs2)cs1`, the EC50 in experiment [1] and in [2] was > 112 µM (not active) in each case.
Turning to `Clc1cccc(Cl)c1C1Nc2cccc3cccc(c23)N1`, the EC50 in the experiment on Streptococcus was 19.1 µM (active); in experiment [3] it was 5.07 µM (active); at Streptokinase A, > 50 µM (not active).
In the case of `Cn1c(=O)oc2cc(S(=O)(=O)N3CCN(c4ccc(F)cc4)CC3)ccc21`, the EC50 in experiment [1] and in experiment [2] was > 112 µM (not active) each time.
`CC1C/C(=N\NC(=S)NCc2ccccc2)CC(C)(C)C1` (stereo not drawn): the EC50 was 10.4 µM (active) in the experiment on Streptococcus, 6.08 µM (active) in [3] and > 150 µM (not active) at Streptokinase A.
Regarding `O=C(CCOc1ccccc1)Nc1ccc([N+](=O)[O-])cc1`, the IC50 in experiment [6] was > 47.1 µM (inactive). Also, the EC50 in experiment [7] was > 53 µM (inactive).
The matching figures for `COc1ccc2c(c1)/C(=C/c1cc(OC)c(OC)c(OC)c1)C(=O)N2`: > 47.1 µM (inactive) and > 53 µM (inactive).
Take `COC1(C[S+]([O-])c2ccccc2)CCN(CCc2c[nH]c3ccc(F)cc23)CC1` (stereo not drawn): the results for the AC50 on Cytochrome P450 2D6 and on Cytochrome P450 2C9 were 15.8 µM (inconclusive) and 25.1 µM (inconclusive), respectively.
For the molecule `COc1ccc(N2C(=O)c3cccc4cccc(c34)C2=O)cc1`, the EC50 in [7] was > 53 µM (inactive).
Same read-out and setting: the figure for `C=CCc1cc(/C=C2\C(=N)N3N=C(CC(=O)N4CCOCC4)SC3=NC2=O)cc(OC)c1O` is 6.76 µM (active).
With `Cc1ccc(C(=O)NC2CCCC2)s1`, the EC50 (with Streptococcus; in experiment [3]; at Streptokinase A) was > 150 µM (not active) throughout.
With `O=C(c1ccncc1)N1CCC2(CCCN(c3ccc(-c4ccccc4)cc3)C2)CC1`, the AC50 on Cytochrome P450 2D6 is 12.6 µM (inconclusive).
The same measure, in the same setting: the figure for `Cn1nc(C(F)(F)F)c(C(=O)Nc2ccc(F)cc2F)c1Sc1ccc(C(F)(F)F)cc1` is 14.1 µM (inconclusive).
Turning to `O=C(c1ccccc1Nc1ccc(SC(F)F)cc1)N1CCCCC1`, the AC50 on Cytochrome P450 2D6 is 1.12 µM (inconclusive); at Cytochrome P450 2C9, 2.82 µM (inconclusive).
In the case of `CCCCCCCCCOC(=O)C[n+]1csc(CCO)c1C`, the IC50 in [6] is > 47.1 µM (inactive). The EC50 in experiment [7] is > 53 µM (inactive).
Consider `Cc1cccc(CNc2ccnc(-c3ccoc3)n2)c1`, for which the AC50 on Cytochrome P450 2D6 was 31.6 µM (inconclusive).
On to `O=C(O)c1ccc(N2CCCCS2(=O)=O)cc1`, for which the EC50 (in the experiment on Streptococcus; in experiment [3]; on Streptokinase A) was > 150 µM (not active) in each case.
With `NC(=O)c1ccc(C2SCC(=O)N2Cc2ccccc2)cc1` (stereo not drawn), the IC50 in experiment [6] was > 47.1 µM (inactive). In addition, the EC50 in experiment [7] is > 53 µM (inactive).
As for `CC(C)OC(=O)C1=C2SCC(=O)N2C(N)=C(C#N)C1`, the AC50 at Cytochrome P450 2D6 was 25.1 µM (inconclusive).
`CCN1C(=O)C(=O)N(Cc2ccc(OC)c(F)c2)C1=O`: the IC50 in [6] is > 47.1 µM (inactive). Moreover, in [7], the EC50 is > 53 µM (inactive).
In the case of `O=C1CSC(c2cn(-c3ccccc3)nc2-c2ccc3c(c2)OCCO3)N1CCN1CCOCC1` (stereo not drawn), the EC50 in experiment [1] and in experiment [2] was > 112 µM (not active) each time.
In the case of `NC(=O)NC(=O)COC(=O)c1ccc2c(c1)C(=O)N(Cc1ccccc1)C2=O`, the EC50 in experiment [1] and in experiment [2] was > 112 µM (not active) each time.
On to `S=C(NCc1ccc(Cl)c(Cl)c1)Nc1ccc2c(c1)OCO2`, for which the IC50 in experiment [6] is > 47.1 µM (inactive). The EC50 in [7] is > 53 µM (inactive).
With `CSCCC(NC(=O)c1cccc(C)c1)C(=O)NNC(=O)c1cccs1` (stereo not drawn), in [6], the IC50 is > 47.1 µM (inactive). Also, the EC50 in experiment [7] is > 53 µM (inactive).
For `Cc1c(C(=O)N2CCCC2)sc(NC(=O)c2ccc(Cl)cc2)c1C#N`, the EC50 in [1] and in [2] was > 112 µM (not active) in each case.
Regarding `CCOCc1cc(CN2CCCC(CNC(=O)c3ccco3)C2)ccc1OC` (stereo not drawn), the IC50 in [6] is > 47.1 µM (inactive). Moreover, the EC50 in [7] is > 53 µM (inactive).
As to `Cn1cc(S(=O)(=O)N2CCc3ccccc32)cc1C(=O)Nc1ccc(Cl)cc1`, the EC50 in experiment [1] and in experiment [2] was > 112 µM (not active) in each case.
Consider `O=C(Nc1cc(Br)ccc1O)c1cc(-c2ccc3c(c2)OCO3)on1`, for which the IC50 in experiment [6] is > 47.1 µM (inactive). In addition, the EC50 in experiment [7] is > 53 µM (inactive).
As for `CC1=CC(C)(C)n2c(O)c(N=N)c3c(C)c(C)cc1c32`, the EC50 in the experiment with Streptococcus is > 150 µM (not active); in [3], 8.93 µM (active); on Streptokinase A, 16.3 µM (active).
